Results: the NIST ThermoML archive (doi:10.1021/acs.jced.5b00412)
± gives the expanded uncertainty stated by the source.

Experiment: wn = mass fraction of the nth substance listed
Settings: 101.3 kPa, Liquid, Vibrating tube method

NCCCO [3-amino-1-propanol] + O
mass density [kg/m3]
Settings	w1 = 0.1	w1 = 0.2	w1 = 0.3	w1 = 0.41	w1 = 0.51	w1 = 0.61	w1 = 0.7	w1 = 0.8	w1 = 0.91	w1 = 1
293.15 K	998.7 ± 2.9	1002.2 ± 3.1	1005.9 ± 2.9	1008.8 ± 2.9	1011.3 ± 2.9	1015.4 ± 2.8	1014.9 ± 2.9	1009.8 ± 3.1	1001.4 ± 3.6	987.5 ± 2.8
298.15 K	997.3 ± 2.9	1000.4 ± 2.9	1003.7 ± 2.9	1006 ± 2.9	1008.2 ± 2.9	1011.8 ± 2.8	1011.2 ± 2.9	1005.9 ± 3.1	997.5 ± 3.6	983.6 ± 2.8
303.15 K	995.7 ± 2.9	998.4 ± 2.9	1001.3 ± 2.9	1003.1 ± 2.8	1005 ± 2.9	1008 ± 2.8	1007.3 ± 2.9	1002 ± 3.1	993.5 ± 3.6	979.6 ± 2.8
308.15 K	993.9 ± 2.9	996.3 ± 2.9	998.8 ± 2.8	1000.1 ± 2.8	1001.8 ± 2.8	1003.9 ± 2.8	1003.4 ± 2.9	998 ± 3.1	989.5 ± 3.6	975.5 ± 2.8
313.15 K	991.9 ± 2.9	994 ± 2.9	996.2 ± 2.8	997.1 ± 2.8	998.5 ± 2.8	1001 ± 2.8	999.2 ± 2.9	994 ± 3.1	985.5 ± 3.6	971.5 ± 2.8
318.15 K	989.7 ± 2.8	991.6 ± 2.8	993.3 ± 2.8	993.9 ± 2.8	995 ± 2.8	997.2 ± 2.8	995.6 ± 2.9	990 ± 3.1	981.5 ± 3.6	967.5 ± 2.8
323.15 K	987.3 ± 2.8	989 ± 2.8	990.6 ± 2.8	990.6 ± 2.8	991.5 ± 2.8	993.3 ± 2.8	991.7 ± 2.9	986 ± 3.1	977.5 ± 3.6	963.4 ± 2.8
328.15 K	984.8 ± 2.8	986.3 ± 2.8	987.6 ± 2.8	987.9 ± 2.8	988 ± 2.8	989.5 ± 2.8	987.8 ± 2.9	981.9 ± 3.1	973.4 ± 3.6	959.3 ± 2.8
333.15 K	983 ± 2.8	983.5 ± 2.8	984.5 ± 2.8	984.5 ± 2.8	984.4 ± 2.8	985.6 ± 2.8	983.9 ± 2.9	977.7 ± 3.2	969.3 ± 3.5	955.8 ± 2.8
338.15 K	980.3 ± 2.8	980.5 ± 2.8	981.3 ± 2.8	981.9 ± 2.8	980.8 ± 2.8	981.6 ± 2.8	979.9 ± 3	973.2 ± 3.2	965.2 ± 3.5	951.7 ± 2.8
343.15 K	977.5 ± 2.8	977.5 ± 2.8	978 ± 2.8	978.3 ± 2.8	977.5 ± 2.8	977.6 ± 2.8	975.8 ± 3	969.1 ± 3.2	961 ± 3.5	947.6 ± 2.8
348.15 K	974.5 ± 2.8	974.3 ± 2.8	974.6 ± 2.8	974.7 ± 2.8	972.9 ± 2.8	973.6 ± 2.8	971.6 ± 3	965.1 ± 3.2	956.9 ± 3.5	943.5 ± 2.8
353.15 K	971.2 ± 2.8	971 ± 2.8	971.1 ± 2.8	971.1 ± 2.8	970.8 ± 2.8	969.5 ± 2.8	967.4 ± 3	961.2 ± 3.2	952.7 ± 3.6	939.3 ± 2.8
